Measured values: patent publication US20180355369A1, “Method for Increasing Plant Stress Tolerance and Seed Dormancy” (The Australian National University, priority 2015, published 2018)
Entries after “also recorded” stand apart in the source; their conditions may differ.

Key:
seeds = experiment: Seed germination assay; type: in vivo, Arabidopsis
Protocol: Seeds used for germination assays were 3-months-old and all from seed stocks produced and harvested from plants grown under identical conditions at the same time. Seeds were sterilized and grown on 0.8% (w/v) agar plates containing Murashige-Skoog (MS) nutrients and 2% (w/v) sucrose. Different combinations of 0, 1 μM ABA, 0, 0.5 μM paclobutrazol and/or 0, 100, 500 and 1000 μM PAP were supplemented into the media using the infiltration buffer. At least 70-100 seeds from each genotype were plated on the same plate for efficient comparison. The seeds were stratified at 4° C. in the dark for 48 h before transfer to a growth cabinet and grown at 22° C. under 24-h light (100 μmol photons m^−2 s^−1) unless stated otherwise. The germination was scored after 3 days as the emergence of the radicle through the seed coat and the germination rate was calculated as the percentage of the total number of seeds per treatment with five replicates for each treatment. The experiment was repeated twice and statistical analyses are described below.

stomata [1] = experiment: Stomatal aperture in epidermal leaf peels; type: cell-based, Arabidopsis
Protocol: (§1) Five- to six-week-old plants were used to prepare epidermal peels. ABA at a concentration of 20 μM in water was root fed to hydroponically grown plants or sprayed onto leaves using a Studio Series IS-875 with a 0.5 mm nozzle opening (Iwata). We investigated if PAP accumulation in the double mutants could affect the production of NO during ABA-induced stomatal closure by treating epidermal peels with the inhibitor of NO synthase N(G)-methyl-L-arginine (NMA). For the investigation of the effect of different chemicals on stomatal closure, 20 μM ABA (Sigma-Aldrich), 100 mM LiCl, or 1 mM ATP, 1 mM or 100 μM PAP (Sigma-Aldrich) alone or in different combinations were prepared in infiltration buffer (1 mM PIPES KOH pH 6.0, 1 mM Sodium citrate, 1 mM KCl, 15 mM Sucrose) modified from a cordycepin infiltration buffer.
Measurements of stomatal aperture were performed with epidermal strips taken from five- to six-week-old plants. Fully developed leaves were cut and placed with their adaxial side onto cello tape. The vein was removed by razor blade and the abaxial epidermis was subsequently peeled off by using another strip of cello tape. To promote stomatal opening, the peels left adhered to the Scotch (810D Magic Tape, ¾ inch, 3M) were placed in petri dishes filled with stomatal opening solution (10 mM MES, 5 mM KCl, 50 μM CaCl2, pH 6.5) and incubated for 2 h at 22° C. under 150-200 μmol photons m^−2 s^−1 of light. Once the stomata were fully open, strips were maintained in the opening buffer or treated with various compounds according to the experiment. After treatment, photographs of stomata were taken using Leica microscope (Leica Microsystems, Wetzlar, Germany) at 20×. Stomatal aperture was measured using the image-processing software ImageJ. For stomatal aperture measurements, the ratio of stomatal pore width and length was used instead of width as this normalizes the pores of stomata of different size. Small stomata with a stomatal pore length of less than 7.5 μm were discarded. For each data point, 90 stomata were measured in 3 independent experiments. In each experiment, 10 stomata were measured in 3 epidermal strips per sample per treatment.
(§2) Measurements of stomatal closure in response to ABA, PAP, cordycepin and ATP treatments were performed on epidermal strips from Arabidopsis and barley plants grown under specific conditions. Plants were grown under high humidity (approximately 80% RH) and 12 h/12 h and 22/20° C. light/dark cycle in a growth chamber. Epidermal peels of newly expanding true leaves of three to four-week old plants. Stomatal apertures were measured in epidermal peels of newly expanded leaves. Peels were taken from the abaxial leaf surface and were fixed to the glass bottom of the experimental chamber after coating the chamber surface with an optically clear and pressure-sensitive silicon adhesive (Factor II, Tucson, USA). The attached epidermal peel is subsequently immersed in an opening buffer (OB: 50 mM KCl, 5 mM MES titrated to pH 6.1 with NaOH) and incubated, at plant growth conditions, for approximately 2 h. Stomatal images were taken using a bright-field microscope capable of 400× magnification for 10 minutes in OB and subsequently in Measuring Buffer [MB: 10 mM KCl, 5 mM MES titrated to pH 6.1 with Ca(OH)2] or PAP or cordycepin or ABA (dissolved in MB) for another 50 min. In total this was a 60 minute time course and images of the epidermal section were taken every 5 minutes using NIS Elements software (Nikon, Japan). Stomata aperture width and length were measured using Image J (NIH, USA). The pore area of each stomate was calculated using these values under the assumption that the area of a stomatal pore was that of an ellipse. Data are expressed as percentage over the control.

[2] = PAP accumulation in leaves after petiole feeding; type: in vivo, Arabidopsis; conditions: petiole feeding of PAP for 1 h, alone or co-applied with LiCl or ATP
Protocol: as §1
Total adenosines were extracted with 0.1 M HCl, derivatization with chloroacetaldehyde and quantified fluorometrically after HPLC fractionation. 3′-phosphoadenosine 5′-phosphate (PAP) quantification was performed by integrating the HPLC peak area and converting these to pmol units using standard curves of 1, 5 and 10 pmol standard.

guard cells [3] = experiment: ROS accumulation in guard cells of epidermal peels; type: cell-based, Arabidopsis; conditions: wild type, ost1-2 and ost1-2 alx8
Protocol: The ABA- and PAP-induced accumulation of ROS in guard cells of epidermal peels was measured using dichlorofluorescein diacetate (H2DCFDA, Invitrogen). After 2 h of incubation in OB, the epidermal peel was incubated with 20 μM dye dissolved in DMSO and MB for 30 min, and then rinsed with MB three times. Epidermal peels were incubated in ABA or PAP dissolved in MB (or MB only as a negative control) for 10 min. Fluorescence images were taken using a Leica inverted confocal microscope controlled by the LAS AF software (Leica Microsystems, Germany). We used the 496-nm excitation line of an argon multiline laser. H2DCFDA fluorescence emission was detected at 505 to 525 nm. Chloroplast fluorescence was detected at 680 to 700 nm in order to separate the autofluorescence of chlorophyll in guard cells. Images were quantified with Image J software (National Institutes of Health, USA). The background signal was measured from the empty region of the similar size and subtracted from the stomata signal to obtain corrected total stomatal fluorescence values. Each stomate was considered to represent a single biological unit and thus fluorescence values were averaged across all stomata at each time point for each treatment. At least three biological replicates were measured for each treatment.

stomata [4] = experiment: Stomatal aperture in barley leaf epidermal peels; type: cell-based; conditions: exogenous PAP 100 μM
Protocol: as §2, with “Stomatal images were taken using a bright-field microscope capable of 400× magnification for 10 minutes in OB and subsequently in Measuring Buffer [MB: 10 mM KCl, 5 mM MES titrated to pH 6.1 with Ca(OH)2] or PAP or cordycepin or ABA (dissolved in MB) for another 50 min. In total this was a 60 minute time course and images of the epidermal section were taken every 5 minutes using NIS Elements software (Nikon, Japan).” left out

guard cells [5] = experiment: Ion fluxes (K+, Cl- and Ca2+) in guard cells; type: cell-based, Arabidopsis; conditions: wild type, ost1-2, alx8 and ost1-2 alx8

Nc1ncnc2c1ncn2[C@@H]1O[C@H](COP(=O)(O)O)[C@@H](OP(=O)(O)O)[C@H]1O [PAP, 3′-phosphoadenosine 5′-phosphate]
ABA responsiveness of germination in abi1-1 (seeds; abi1-1 seeds, addition of PAP alone): restored ABA responsiveness in abi1-1
seed germination / dormancy (seeds; wild type seeds, exogenous PAP in conjunction with exogenous ABA (1 μM) or lower GA): extended the dormancy of seeds; also recorded: repress germination in wild type seeds in a dose-dependent manner
magnitude and rate of ABA-mediated stomatal closure with added PAP (stomata [1]; PAP together with ABA): further enhanced
stomatal closure in leaf peels (stomata [1]; leaf peels of wild type plants, 1 hr, PAP 100 μM, ABA 100 μM, cordycepin 10 μM): elicited rapid stomatal closure similar to the ABA response; also recorded: nearly identical to that of ABA
accumulation of PAP in leaves [2]: results in accumulation of PAP in leaves
ROS burst in guard cells (guard cells [3]): phenocopying of the timing and extent of the ABA-induced ROS burst
stomatal conductance in barley (stomata [4]): regulates stomatal conductance in barley
ion fluxes (guard cells [5]): mediated similar rapid changes in ion fluxes in all genotypes
